# Data from ChEMBL document CHEMBL1135079, “CCR5 antagonists: bicyclic isoxazolidines as conformationally constrained N-1-substituted pyrrolidines” (Bioorg Med Chem Lett, 2002).
# What was measured:
# [1] = biological target: C-C chemokine receptor type 5 (Homo sapiens, UniProt P51681); assay: Ability to displace [125I]-labeled MIP-1alpha from the C-C chemokine receptor type 5 expressed on CHO cell membranes
# [2] = system: Human immunodeficiency virus 1; assay: Antiviral activity against BAL strain of HIV using HeLa cell anti-infectivity assay; type: functional; settings: Human immunodeficiency virus 1, HeLa
# Chain of C-C chemokine receptor type 5 (P51681 whole entry): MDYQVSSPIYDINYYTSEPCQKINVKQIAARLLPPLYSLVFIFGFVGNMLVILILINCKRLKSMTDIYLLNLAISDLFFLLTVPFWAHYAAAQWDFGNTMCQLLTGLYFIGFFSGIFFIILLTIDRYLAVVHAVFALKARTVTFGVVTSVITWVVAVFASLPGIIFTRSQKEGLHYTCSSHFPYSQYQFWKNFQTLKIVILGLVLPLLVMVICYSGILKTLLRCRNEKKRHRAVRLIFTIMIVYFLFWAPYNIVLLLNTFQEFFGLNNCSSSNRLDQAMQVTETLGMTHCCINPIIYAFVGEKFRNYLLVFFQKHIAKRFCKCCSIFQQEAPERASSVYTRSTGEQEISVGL
Structure (SMILES),IC50 [1] [nM],IC90 [2] [nM]
CCN(C(=O)OCc1ccccc1)C1CCN(C[C@@H]2[C@@H](c3ccccc3)CN3O[C@H](c4ccccc4)C[C@@H]23)CC1,46,
C=CCN(C(=O)OCc1ccc([N+](=O)[O-])cc1)C1CCN(C[C@H]2CN(C(=O)C3CCCCC3)C[C@@H]2c2ccccc2)CC1,,4
CCN(C(=O)OCc1ccccc1)C1CCN(C[C@@H]2[C@@H](c3ccccc3)CN3OC4(CCCCC4)C[C@@H]23)CC1,86,
c1ccc(C2CCN(C[C@H]3CN4OC5(CCCCC5)C[C@H]4[C@@H]3c3ccccc3)CC2)cc1,43,
c1ccc(C2CCN(C[C@H]3CN4O[C@H](c5ccccc5)C[C@H]4[C@@H]3c3ccccc3)CC2)cc1,27,
c1ccc(C2CCN(C[C@@H]3[C@@H](c4ccccc4)CN4OC5(CCCCC5)C[C@@H]34)CC2)cc1,33,
c1ccc(C2CCN(C[C@@H]3[C@@H](c4ccccc4)CN4O[C@H](c5ccccc5)C[C@@H]34)CC2)cc1,30,

# Second part, the compound after the results:
IC50 [1] [nM],IC90 [2] [nM],Structure (SMILES)
6,> 300,C=CCN(C(=O)OCc1ccc([N+](=O)[O-])cc1)C1CCN(C[C@@H]2[C@@H](c3ccccc3)CN3O[C@H](c4ccccc4)C[C@@H]23)CC1
11,,c1ccc(CCCC2CCN(C[C@@H]3[C@@H](c4ccccc4)CN4O[C@H](c5ccccc5)C[C@@H]34)CC2)cc1
~27,,CCN(C(=O)OCc1ccccc1)C1CCN(C[C@H]2CN3O[C@H](c4ccccc4)C[C@H]3[C@@H]2c2ccccc2)CC1
8,> 300,c1ccc(CCCC2CCN(C[C@H]3CN4OC5(CCCCC5)C[C@H]4[C@@H]3c3ccccc3)CC2)cc1
2.5,300,C=CCN(C(=O)OCc1ccc([N+](=O)[O-])cc1)C1CCN(C[C@H]2CN3O[C@H](c4ccccc4)C[C@H]3[C@@H]2c2ccccc2)CC1
5,> 300,c1ccc(CCCC2CCN(C[C@H]3CN4O[C@H](c5ccccc5)C[C@H]4[C@@H]3c3ccccc3)CC2)cc1
5,> 300,CCN(C(=O)OCc1ccccc1)C1CCN(C[C@H]2CN3OC4(CCCCC4)C[C@H]3[C@@H]2c2ccccc2)CC1
14,,C=CCN(C(=O)OCc1ccc([N+](=O)[O-])cc1)C1CCN(C[C@@H]2[C@@H](c3ccccc3)CN3OC4(CCCCC4)C[C@@H]23)CC1
0.13,33,C=CCN(C(=O)OCc1ccc([N+](=O)[O-])cc1)C1CCN(C[C@H]2CN3OC4(CCCCC4)C[C@H]3[C@@H]2c2ccccc2)CC1
